Measured values from ChEMBL document CHEMBL5728694, “Inhibitors of hepatitis C virus replication” (2021).

Assay: Measuring Compound Inhibitory Potency: Measurement of inhibition by compounds was performed using the HCV replicon system. Several different replicons encoding different HCV genotypes or mutations were used. In addition, potency measurements were made using different formats of the replicon assay, including different ways of measurements and different plating formats. See Jan M. Vrolijk et al., A replicons-based bioassay for the measurement of interferons in patients with chronic hepatitis C, 110 J. VIROLOGICAL METHODS 201 (2003); Steven S. Carroll et al., Inhibition of Hepatitis C Virus RNA Replication by 2′-Modified Nucleoside Analogs, 278(14) J. BIOLOGICAL CHEMISTRY 11979 (2003). However, the underlying principles are common to all of these determinations, and are outlined below.Stable neomycin phosphotransferase encoding replicon-harboring cell lines were used, so all cell lines were maintained under G418 selection prior to the assay. In some cases, the cell lines encoded a luciferase:Neor fusion and could be assayed either directly by determination of RNA copy number, or indirectly through measurement of the luciferase activity.To initiate an assay, replicon cells were plated in the presence of a dilution series of test compound in the absence of G418. Typically, the assays were performed in a 96-well plate format for manual operation, or a 384-well plate in an automated assay. […]

With `COC(=O)N[C@H](C(=O)N1CCC[C@H]1c1ncc(-c2ccc3oc(-c4ccc(-c5cnc([C@@H]6CCCN6C(=O)[C@@H](NC(=O)OC)C(C)C)[nH]5)c(F)c4)cc3c2)[nH]1)C(C)C` as the compound, how does the EC50 read?
The EC50 was 4 pM.
